In patent US12551482B2, “Aurora kinase inhibitors” (The Regents of the University of California, priority 2013, dated 2026):
Where two headings read alike, the source gives them in different places.

How the values were obtained:
MYCN = assay: Screen of Kelly MYCN-amplified cells, western blot for MYCN; type: cell-based; details: 1 μM, 24 hrs
Experimental: Neuroblastoma tumor cell lines were obtained from the University of California San Francisco Cell Culture Facility (Kelly, SK-N-BE2, and SH-EP). SMS-KCN, SHEP MYCN^wt and MYCN^T58A/S62A cells were obtained. All cells were grown in RPMI with 10% FBS. Neuroblastoma cells were harvested and lysed with Cell Signaling Lysis buffer+1% SDS, sonicated and supernatants boiled in LDS sample buffer (Invitrogen). Western blots were performed as described previously (Chanthery et al., 2012), with primary antibodies to MYCN (ab24193, Abcam), Histone H3, P-Histone H3 (S10), Aurora A (Cell signaling), and GAPDH (Millipore). Western blot quantitation performed with ImageJ software.
To test whether this panel of 32 putative conformation-disrupting Aurora A inhibitors would destabilize MYCN, initially Kelly MYCN-amplified neuroblastoma cells were treated with candidate inhibitors and MYCN protein was measured by western blot. Phosphorylation of Histone H3, a known substrate for Aurora A and B and a marker for mitosis, was also assessed. FIGS. 1B and 5 show decreased levels of both MYCN protein and p-Histone H3 in response to several members of the screening panel (quantitated in FIG. 1).

phospho-pan-Aurora = assay: Phospho-pan-Aurora by flow cytometry; type: cell-based; details: 1 μM, 6 hrs (FIG. 6C)
Experimental: Neuroblastoma cells were treated for the indicated time, trypsinized, washed, stained with Dylight 800 at 0.3 μg/mL (Pierce, 46421), fixed with 1.5% PFA, and permeabilized with 100% methanol. Cells were then stained with antibodies against p-MPM2 (Millipore, 16-155), p-pan-Aurora (Cell Signaling, 2914), MYCN (Thermo, PA5-17403), rabbit IgG (Invitrogen, A10542), or mouse IgG (BioLegend, 405307). Cells were stained with DAPI at 0.3 μg/mL (Invitrogen, D21490) and analyzed on the BD LSR II flow cytometer. For cell cycle analysis, cells were stimulated with EdU for 2 hours prior to harvest, then probed using the Click-iT EdU Flow Cytometry Assay Kit (Invitrogen, C10424). Cells were stained with propidium iodide (BD, 556547) and analyzed on the BD FACSCalibur flow cytometer. Data was gated using Cytobank. For viability studies, neuroblastoma cells were plated in 96-well plates at a density of 1,000 cells/well for SHEP or 4,000 cells/well for Kelly or SK—N-BE2 cells, then incubated with indicated concentrations of drug for 72 hours at 37° C. Plates were frozen at −80° C. to induce cell lysis. CyQUANT reagent mixture (Invitrogen, C7026) was added to thawed plates, then fluorescence was measured. Alternatively, resazurin (Sigma-Aldrich, R7017) was added directly to wells following drug treatment then incubated for 4 hours at 37° C. prior to measuring fluorescence. Data was analyzed using GraphPad Prism software.

[1] = test system: MYCN-expressing, SHH-subtype medulloblastoma allograft; assay: Medulloblastoma allograft in mice; type: in vivo
Experimental: Mice were injected intraperitoneally as described. For determining tumor volume, for example in medulloblastoma model mice, mice were euthanized once maximum tumor length exceeded 2.0 cm, per IACUC protocol (IACUC, Institutional Animal Care and Use Committee).

tumor-derived cell lines = assay: Screen of panel of tumor-derived, genetically characterized cell lines; type: cell-based
WM793B = assay: Cancer cell line profiling, Genomics of Drug Sensitivity Project; details: read-out: CD532 EC50 (uM)
MEL-JUSO = assay: as above; details: Homo sapiens, read-out: CD532 EC50 (uM)
AGS = assay: as above; details: Homo sapiens, read-out: CD532 EC50 (uM)
B-CPAP = assay: as above; details: Homo sapiens, BCPAP, read-out: CD532 EC50 (uM)
DOK = assay: as above; details: read-out: CD532 EC50 (uM)
HSC-3 = assay: as above; details: Homo sapiens, HSC-3, read-out: CD532 EC50 (uM)
Hep 3B2.1-7 = assay: as above; details: read-out: CD532 EC50 (uM)
JHH-4 = assay: as above; details: JHH-4, read-out: CD532 EC50 (uM)
JHH-2 = assay: as above; details: JHH-2, read-out: CD532 EC50 (uM)
JHH-6 = assay: as above; details: read-out: CD532 EC50 (uM)
HLE = assay: as above; details: Homo sapiens, read-out: CD532 EC50 (uM)
DSH1 = assay: as above; details: read-out: CD532 EC50 (uM)
GAK = assay: as above; details: read-out: CD532 EC50 (uM)
HT-144 = assay: as above; details: Homo sapiens, HT-144, read-out: CD532 EC50 (uM)
LB2518-MEL = assay: as above
MMAC-SF = assay: as above; details: read-out: CD532 EC50 (uM)
MZ2-MEL. = assay: as above; details: read-out: CD532 EC50 (uM)
NB10 = assay: as above; details: read-out: CD532 EC50 (uM)

Structure (SMILES): O=C(Nc1ccc(Nc2nccc(Nc3cc(C4CCCC4)[nH]n3)n2)cc1)Nc1cccc(C(F)(F)F)c1 [CD532, 1-(4-((4-((5-cyclopentyl-1H-pyrazol-3-yl)amino)pyrimidin-2-yl)amino)phenyl)-3-(3-(trifluoromethyl)phenyl)urea]
- MYCN protein level (MYCN): decreased levels of both MYCN and p-Histone H3 proteins
- phospho-pan-Aurora (phospho-pan-Aurora): loss of phospho-pan-Aurora
- overall survival ([1]; 25 mg/kg b.i.w. vs vehicle): statistical significant increase in overall survival
- tumor growth (tumor size over time) ([1]; 25 mg/kg b.i.w., intraperitoneal injection): inhibits growth
- susceptibility of MYCN amplified vs non-amplified cell lines (tumor-derived cell lines; Wilcoxon Rank Sum test): significantly more susceptible to CD532 than non-amplified lines
- EC50 values across the panel (tumor-derived cell lines; most cell lines): nanomolar range
- EC50 (WM793B): 0.705 µM
- EC50 (MEL-JUSO): 0.783 µM
- EC50 (AGS): 0.346 µM
- EC50 (B-CPAP): 0.739 µM
- EC50 (DOK): 0.512 µM
- EC50 (HSC-3): 2.33 µM
- EC50 (Hep 3B2.1-7): 0.877 µM
- EC50 (JHH-4): 1.35 µM
- EC50 (JHH-2): 0.543 µM
- EC50 (JHH-6): 1.24 µM
- EC50 (HLE): 0.567 µM
- EC50 (DSH1): 0.779 µM
- EC50 (GAK): 0.823 µM
- EC50 (HT-144): 0.366 µM
- EC50 (LB2518-MEL; read-out: CD532 EC50 (uM), LB2518-MEL cell line, Skin): 0.847 µM
- EC50 (LB2518-MEL; read-out: CD532 EC50, LB2518-MEL cell line, Skin): 0.709 µM
- EC50 (MMAC-SF): 0.566 µM
- EC50 (MZ2-MEL.): 0.434 µM
- EC50 (NB10): 0.275 µM
